Laboratory results taken from PubChem BioAssay AID1963827 (Molecular Pharmacology Branch, DTP, NCI, 2024).

Test system: 994946-033-R-J1-PDC complex spheroid viability
Assay: Anticancer human tumor 994946-033-R-J1-PDC patient-derived melanoma cell line growth inhibition [POLQ]
Conditions: for IC50: curve of first compound; for viability, T/C: stronger effect = lower value; active means viability on the fitted dose curve at most 10% of control; inactive means the rest
How it was run: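 Three-cell-type spheroids modelling solid tumor plus stroma served as the readout system; POL inhibitors were tested individually and in combination, concentration ranges set by clinical Cmax where known.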

[1] = second compound 0.0316 µM, first compound 0.0316 µM
[2] = second compound 0.0316 µM, first compound 0.1 µM
[3] = second compound 0.0316 µM, first compound 0.316 µM
[4] = second compound 0.0316 µM, first compound 1 µM
[5] = second compound 0.1 µM, first compound 0.0316 µM
[6] = second compound 0.1 µM, first compound 0.1 µM
[7] = second compound 0.1 µM, first compound 0.316 µM
[8] = second compound 0.1 µM, first compound 1 µM
[9] = second compound 0.316 µM, first compound 0.0316 µM
[10] = second compound 0.316 µM, first compound 0.1 µM
[11] = second compound 0.316 µM, first compound 0.316 µM
[12] = second compound 0.316 µM, first compound 1 µM
[13] = second compound 1 µM, first compound 0.0316 µM
[14] = second compound 1 µM, first compound 0.1 µM
[15] = second compound 1 µM, first compound 0.316 µM
[16] = second compound 1 µM, first compound 1 µM
[17] = second compound 3.16 µM, first compound 0.0316 µM
[18] = second compound 3.16 µM, first compound 0.1 µM
[19] = second compound 3.16 µM, first compound 0.316 µM
[20] = second compound 3.16 µM, first compound 1 µM
[21] = second compound 10 µM, first compound 0.0316 µM
[22] = second compound 10 µM, first compound 0.1 µM
[23] = second compound 10 µM, first compound 0.316 µM
[24] = second compound 10 µM, first compound 1 µM
[25] = second compound 0.0316 µM, first compound 3.16 µM
[26] = second compound 0.0316 µM, first compound 10 µM
[27] = second compound 0.1 µM, first compound 3.16 µM
[28] = second compound 0.1 µM, first compound 10 µM
[29] = second compound 0.316 µM, first compound 3.16 µM
[30] = second compound 0.316 µM, first compound 10 µM
[31] = second compound 1 µM, first compound 3.16 µM
[32] = second compound 1 µM, first compound 10 µM
[33] = second compound 3.16 µM, first compound 3.16 µM
[34] = second compound 3.16 µM, first compound 10 µM
[35] = second compound 10 µM, first compound 3.16 µM
[36] = second compound 10 µM, first compound 10 µM
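Further: spheroids exposed to drugs for 7 days.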
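Wherever viability, T/C is given: 100% = DMSO vehicle treated spheroids.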

CCc1c2c(nc3ccc(O)cc13)-c1cc3c(c(=O)n1C2)COC(=O)[C@]3(O)CC + Nc1ccc(C#CCN(C(=O)Cc2ncc(C(F)(F)F)cc2C(F)(F)F)c2ccc(F)cc2)nn1
< 0.00316 µM: IC50 (second compound 0.0316 µM) | IC50 (second compound 0.1 µM) | IC50 (second compound 0.316 µM) | IC50 (second compound 1 µM) | IC50 (second compound 3.16 µM) | IC50 (second compound 10 µM)
inactive: viability, T/C (second compound 0.0316 µM, first compound 0.00316 µM) 27% | viability, T/C (second compound 0.0316 µM, first compound 0.01 µM) 13.4% | viability, T/C (second compound 0.1 µM, first compound 0.00316 µM) 23.6% | viability, T/C (second compound 0.1 µM, first compound 0.01 µM) 11.1% | viability, T/C (second compound 0.316 µM, first compound 0.00316 µM) 29.8% | viability, T/C (second compound 0.316 µM, first compound 0.01 µM) 10.9% | viability, T/C (second compound 1 µM, first compound 0.00316 µM) 20.8% | viability, T/C (second compound 1 µM, first compound 0.01 µM) 12.1% | viability, T/C (second compound 3.16 µM, first compound 0.00316 µM) 26.3% | viability, T/C (second compound 3.16 µM, first compound 0.01 µM) 16.2% | viability, T/C (second compound 10 µM, first compound 0.00316 µM) 28% | viability, T/C (second compound 10 µM, first compound 0.01 µM) 14.1%
active: viability, T/C [1] 8.88% | viability, T/C [2] 5.83% | viability, T/C [3] 4.85% | viability, T/C [4] 1.91% | viability, T/C [5] 7.44% | viability, T/C [6] 6.7% | viability, T/C [7] 7.41% | viability, T/C [8] 2.23% | viability, T/C [9] 8.12% | viability, T/C [10] 7.25% | viability, T/C [11] 6.69% | viability, T/C [12] 2.59% | viability, T/C [13] 6.5% | viability, T/C [14] 9.5% | viability, T/C [15] 5.03% | viability, T/C [16] 2.07% | viability, T/C [17] 8.04% | viability, T/C [18] 6.61% | viability, T/C [19] 6.79% | viability, T/C [20] 1.91% | viability, T/C [21] 5.91% | viability, T/C [22] 7.41% | viability, T/C [23] 8.18% | viability, T/C [24] 2.64%

CC1COCCN1c1cc(C2(S(C)(=N)=O)CC2)nc(-c2ccnc3[nH]ccc23)n1 (stereo not drawn) + COC1C(OC(N)=O)C(O)C(Oc2ccc3c(O)c(NC(=O)c4ccc(O)c(CC=C(C)C)c4)c(=O)oc3c2C)OC1(C)C
4.03 µM: IC50 (second compound 0.316 µM)
3.19 µM: IC50 (second compound 10 µM)
8.12 µM: IC50 (second compound 1 µM)
1.39 µM: IC50 (second compound 0.1 µM)
> 10 µM: IC50 (second compound 3.16 µM)
inactive: viability, T/C [1] 134% | viability, T/C [2] 95.5% | viability, T/C [3] 99.4% | viability, T/C [4] 45.6% | viability, T/C [25] 61.9% | viability, T/C [26] 41.1% | viability, T/C [5] 113% | viability, T/C [6] 101% | viability, T/C [7] 68.2% | viability, T/C [8] 65.3% | viability, T/C [27] 29.2% | viability, T/C [28] 36.1% | viability, T/C [9] 78.1% | viability, T/C [10] 116% | viability, T/C [11] 92.4% | viability, T/C [12] 63.9% | viability, T/C [29] 61.5% | viability, T/C [30] 34.1% | viability, T/C [13] 138% | viability, T/C [14] 105% | viability, T/C [15] 80.8% | viability, T/C [16] 68.9% | viability, T/C [31] 52.9% | viability, T/C [32] 49.6% | viability, T/C [17] 101% | viability, T/C [18] 90.5% | viability, T/C [19] 80.5% | viability, T/C [20] 75% | viability, T/C [33] 54.6% | viability, T/C [34] 57.9% | viability, T/C [21] 103% | viability, T/C [22] 85.4% | viability, T/C [23] 99% | viability, T/C [24] 102% | viability, T/C [35] 50% | viability, T/C [36] 37%
4.13 µM: IC50 (second compound 0.0316 µM)

O=c1[nH]cc(F)c(=O)[nH]1 + Nc1ccc(C#CCN(C(=O)Cc2ncc(C(F)(F)F)cc2C(F)(F)F)c2ccc(F)cc2)nn1
> 10 µM: IC50 (second compound 0.0316 µM) | IC50 (second compound 0.1 µM) | IC50 (second compound 0.316 µM) | IC50 (second compound 1 µM) | IC50 (second compound 10 µM)
inactive: viability, T/C [1] 104% | viability, T/C [2] 114% | viability, T/C [3] 92.5% | viability, T/C [4] 67.9% | viability, T/C [25] 62.8% | viability, T/C [26] 54% | viability, T/C [5] 101% | viability, T/C [6] 75.6% | viability, T/C [7] 93.7% | viability, T/C [8] 81% | viability, T/C [27] 60.1% | viability, T/C [28] 68.9% | viability, T/C [9] 81.9% | viability, T/C [10] 81.1% | viability, T/C [11] 104% | viability, T/C [12] 70.8% | viability, T/C [29] 76.1% | viability, T/C [30] 63.1% | viability, T/C [13] 100% | viability, T/C [14] 83.1% | viability, T/C [15] 116% | viability, T/C [16] 61.1% | viability, T/C [31] 66.8% | viability, T/C [32] 50.8% | viability, T/C [17] 97.2% | viability, T/C [18] 112% | viability, T/C [19] 81.2% | viability, T/C [20] 85.3% | viability, T/C [33] 49.2% | viability, T/C [34] 47% | viability, T/C [21] 111% | viability, T/C [22] 51.9% | viability, T/C [23] 86.9% | viability, T/C [24] 67.6% | viability, T/C [35] 75.3% | viability, T/C [36] 42.4%
5.54 µM: IC50 (second compound 3.16 µM)

COc1cc2cc(C(=O)CCC(=O)O)sc2cc1OC + Nc1ccc(C#CCN(C(=O)Cc2ncc(C(F)(F)F)cc2C(F)(F)F)c2ccc(F)cc2)nn1
inactive: viability, T/C [1] 81.7% | viability, T/C [2] 99.5% | viability, T/C [3] 92.4% | viability, T/C [4] 83.2% | viability, T/C [25] 86.7% | viability, T/C [26] 67.9% | viability, T/C [5] 126% | viability, T/C [6] 101% | viability, T/C [7] 102% | viability, T/C [8] 92.1% | viability, T/C [27] 87.2% | viability, T/C [28] 87.1% | viability, T/C [9] 111% | viability, T/C [10] 86% | viability, T/C [11] 87.6% | viability, T/C [12] 109% | viability, T/C [29] 72.3% | viability, T/C [30] 96% | viability, T/C [13] 93.5% | viability, T/C [14] 98% | viability, T/C [15] 80.1% | viability, T/C [16] 79.4% | viability, T/C [31] 88.9% | viability, T/C [32] 95.8% | viability, T/C [17] 116% | viability, T/C [18] 75.5% | viability, T/C [19] 111% | viability, T/C [20] 96.3% | viability, T/C [33] 94.9% | viability, T/C [34] 66.8% | viability, T/C [21] 80.5% | viability, T/C [22] 81.9% | viability, T/C [23] 90.7% | viability, T/C [24] 91.8% | viability, T/C [35] 115% | viability, T/C [36] 78.8%
> 10 µM: IC50 (second compound 0.0316 µM) | IC50 (second compound 0.1 µM) | IC50 (second compound 0.316 µM) | IC50 (second compound 1 µM) | IC50 (second compound 3.16 µM) | IC50 (second compound 10 µM)
